Assay results as given in article PMC9774391 (ACS Omega, 2022).

Legend:
Cytotoxicity test (MTT) = assay type: cell-based; conditions: NIH/3T3 mouse embryonic fibroblast cells (ATCC CRL-1658), NIH/3T3 mouse fibroblast healthy cell line
Description: The NIH/3T3 cells were incubated according to the manufacturer’s recommendations. In 96-well plates, NIH/3T3 cells were seeded at a density of 1 × 10^4 cells per well. The MTT test was conducted in line with the previously mentioned standards.[19],[22],[23],[28],[30]

BChE = BChE (Homo sapiens, UniProt P06276); assay: biochemical; conditions: for inhibition at 1000 µM: 10^–3 M; for inhibition at 100 µM: 10^–4 M
Description: (§1) According to the modified Ellman approach outlined in our team’s earlier work, the AChE and BChE inhibitory activities of the obtained compounds were evaluated.[18]−[21]

AChE = AChE (Homo sapiens, UniProt P22303); assay: biochemical; conditions: for inhibition at 1000 µM: 10^–3 M; for inhibition at 100 µM: 10^–4 M; for inhibition at 10 µM: 10^–5 M; for inhibition at 1 µM: 10^–6 M; for inhibition at 0.1 µM: 10^–7 M; for inhibition at 0.01 µM: 10^–8 M; for inhibition at 0.001 µM: 10^–9 M
Description: as §1

MAO-B = biological target: T1, MAO-B (Homo sapiens, UniProt P27338); assay: In vitro MAO-B inhibition assay (fluorometric); assay type: biochemical; conditions: for inhibition at 1000 µM: 10^–3 M; for inhibition at 100 µM: 10^–4 M
T1 sequence (P27338 1-520): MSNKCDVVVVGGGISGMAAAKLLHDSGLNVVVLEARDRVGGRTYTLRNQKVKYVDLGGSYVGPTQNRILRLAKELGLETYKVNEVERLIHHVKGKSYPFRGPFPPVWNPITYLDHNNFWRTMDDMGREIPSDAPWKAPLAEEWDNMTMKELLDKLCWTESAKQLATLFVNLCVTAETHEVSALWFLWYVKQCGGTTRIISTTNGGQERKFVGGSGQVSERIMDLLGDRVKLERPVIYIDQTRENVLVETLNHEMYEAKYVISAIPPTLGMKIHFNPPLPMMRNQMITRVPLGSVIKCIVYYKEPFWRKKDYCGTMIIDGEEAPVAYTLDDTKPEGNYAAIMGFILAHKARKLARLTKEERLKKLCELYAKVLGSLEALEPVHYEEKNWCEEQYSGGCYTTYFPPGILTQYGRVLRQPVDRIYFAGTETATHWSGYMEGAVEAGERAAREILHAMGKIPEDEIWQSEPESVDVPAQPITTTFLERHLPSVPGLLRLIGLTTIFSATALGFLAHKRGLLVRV

MAO-A = biological target: T2, MAO-A (Homo sapiens, UniProt P21397); assay: In vitro MAO-A inhibition assay (fluorometric); assay type: biochemical; conditions: for inhibition at 1000 µM: 10^–3 M; for inhibition at 100 µM: 10^–4 M
T2 sequence (P21397 1-527): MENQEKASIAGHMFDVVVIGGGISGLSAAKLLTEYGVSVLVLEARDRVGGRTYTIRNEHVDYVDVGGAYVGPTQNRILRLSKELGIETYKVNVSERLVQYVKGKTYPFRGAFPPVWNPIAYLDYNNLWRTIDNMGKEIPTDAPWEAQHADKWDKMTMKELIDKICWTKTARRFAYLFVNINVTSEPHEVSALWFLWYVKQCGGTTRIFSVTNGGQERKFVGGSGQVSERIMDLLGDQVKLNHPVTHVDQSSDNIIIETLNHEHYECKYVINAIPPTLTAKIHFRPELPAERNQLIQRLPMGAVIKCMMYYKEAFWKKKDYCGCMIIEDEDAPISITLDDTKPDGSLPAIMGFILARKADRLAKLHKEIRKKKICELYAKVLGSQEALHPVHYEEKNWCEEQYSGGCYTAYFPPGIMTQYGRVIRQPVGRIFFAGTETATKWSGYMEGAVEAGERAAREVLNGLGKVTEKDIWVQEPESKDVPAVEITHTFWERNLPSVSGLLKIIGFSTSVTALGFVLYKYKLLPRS

[1] = DPPH free-radical scavenging activity assay; conditions: for IC50: serial dilution 10^–3–10^–9 M, read-out: IC50 on DPPH antioxidant activity
Description: This approach is based on evaluating the free-radical scavenging abilities of the stable 1,1-diphenyl-2-picrylhydrazyl (DPPH) radical. To create the DPHH solution, 9.86 mg of DPPH was weighed and diluted to 25 mL with methanol. The test wells were then filled with 100 μL of the DPPH solution and 100 μL of the test solutions. Only 200 μL of methanol was used for the blank reading, while the control reading required the usage of 100 μL each of methanol and the DPPH solution. Following incubation, a spectrophotometric measurement at 517 nm was carried out.[26],[27]

Beta Amyloid 1–42 (Aβ42) = biological target: T3, Beta Amyloid 1–42 (Aβ42) (Homo sapiens, UniProt P05067); assay: Beta Amyloid 1–42 (Aβ42) inhibitor screening assay; assay type: biochemical; conditions: 10^–4 M; read-out: % β-amyloid plaque inhibition
T3 construct: The Beta Amyloid 1–42 (Aβ42) Ligand Screening Assay kit; purchased BioVision, Milpitas, CA
Source text: The Beta Amyloid 1–42 (Aβ42) Ligand Screening Assay kit (BioVision, Milpitas, CA) technique based on the fluorometric approach served as the basis for the experimental process.[21],[28],[29]

T3 sequence (P05067 672-713 limits assumed): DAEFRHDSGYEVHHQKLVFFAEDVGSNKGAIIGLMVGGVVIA
Sequence of BChE (P06276 29-602): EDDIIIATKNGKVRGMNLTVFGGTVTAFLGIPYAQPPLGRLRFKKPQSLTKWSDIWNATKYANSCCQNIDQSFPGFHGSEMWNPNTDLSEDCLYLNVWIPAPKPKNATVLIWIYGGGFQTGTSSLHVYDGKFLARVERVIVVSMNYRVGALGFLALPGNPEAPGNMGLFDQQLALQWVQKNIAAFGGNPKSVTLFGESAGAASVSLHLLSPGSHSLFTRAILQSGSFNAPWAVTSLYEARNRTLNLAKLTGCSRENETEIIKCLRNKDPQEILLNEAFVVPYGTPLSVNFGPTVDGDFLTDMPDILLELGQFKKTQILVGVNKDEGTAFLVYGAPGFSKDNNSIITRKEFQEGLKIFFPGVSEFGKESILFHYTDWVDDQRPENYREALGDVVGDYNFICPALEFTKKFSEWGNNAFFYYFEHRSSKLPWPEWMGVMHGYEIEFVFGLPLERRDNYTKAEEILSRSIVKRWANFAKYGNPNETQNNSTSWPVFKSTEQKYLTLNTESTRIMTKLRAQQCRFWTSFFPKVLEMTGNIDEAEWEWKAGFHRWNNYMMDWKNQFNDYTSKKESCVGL
Sequence of AChE (P22303 32-614): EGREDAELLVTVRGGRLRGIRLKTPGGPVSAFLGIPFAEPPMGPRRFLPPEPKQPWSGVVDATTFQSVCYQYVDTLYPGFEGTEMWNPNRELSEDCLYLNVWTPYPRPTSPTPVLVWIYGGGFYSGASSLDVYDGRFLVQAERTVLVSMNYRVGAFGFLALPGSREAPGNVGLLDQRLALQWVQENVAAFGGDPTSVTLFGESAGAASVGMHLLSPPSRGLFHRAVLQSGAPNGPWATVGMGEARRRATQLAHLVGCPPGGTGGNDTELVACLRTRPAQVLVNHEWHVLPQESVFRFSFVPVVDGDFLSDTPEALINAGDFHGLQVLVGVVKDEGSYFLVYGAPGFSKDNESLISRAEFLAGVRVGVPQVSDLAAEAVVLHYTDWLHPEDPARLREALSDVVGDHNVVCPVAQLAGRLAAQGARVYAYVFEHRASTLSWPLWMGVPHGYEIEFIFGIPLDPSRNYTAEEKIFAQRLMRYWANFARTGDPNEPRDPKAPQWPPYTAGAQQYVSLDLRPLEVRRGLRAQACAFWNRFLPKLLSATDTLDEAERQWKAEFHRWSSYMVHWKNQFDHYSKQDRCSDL

Row | Compound | IC50 (Cytotoxicity test (MTT)) | inhibition at 1000 µM (BChE) | inhibition at 100 µM (BChE) | IC50 (AChE) | inhibition at 1000 µM (AChE) | inhibition at 100 µM (AChE) | inhibition at 10 µM (AChE) | inhibition at 1 µM (AChE) | inhibition at 0.1 µM (AChE) | inhibition at 0.01 µM (AChE) | inhibition at 0.001 µM (AChE) | inhibition at 1000 µM (MAO-B) | inhibition at 100 µM (MAO-B) | inhibition at 1000 µM (MAO-A) | inhibition at 100 µM (MAO-A) | inhibition at 100 µM (Beta Amyloid 1–42 (Aβ42)) | further results
1 | COc1ccc2c(c1)C/C(=C\c1ccc(NC(=O)CN3CCN(CCCO)CC3)cc1)C2=O [D19] | 10500 ± 517 nM | 83.5 ± 1.37% | 32.5 ± 0.337% | 32.4 ± 1.2 nM | 95.2 ± 1.65% | 92.7 ± 1.25% | 89.2 ± 1.08% | 82.1 ± 0.988% | 70.7 ± 1.07% | 33.6 ± 0.624% | 20.6 ± 0.596% | 90.2 ± 1.46% | 43.2 ± 0.877% | 60.9 ± 1.86% | 25.3 ± 0.632% | – | % DPPH free-radical scavenging activity ([1]; concentration not stated in the sentence (Figure 6)): ≥ 90%; IC50 [1]: 362 ± 15 nM
2 | COc1ccc2c(c1)C(=O)/C(=C/c1ccc(NC(=O)CN3CCN(CCCO)CC3)cc1)C2 [D20] | 20000 ± 1000 nM | 82.6 ± 1.05% | 20.1 ± 0.277% | 31.1 ± 1.1 nM | 98.3 ± 1.11% | 91.1 ± 1.36% | 86.3 ± 1.25% | 77.2 ± 0.975% | 68.26 ± 0.633% | 40.2 ± 0.528% | 21.1 ± 0.429% | 83.6 ± 1.04% | 41.6 ± 0.508% | 81.86 ± 0.243% | 43.29 ± 0.429% | > 50% | –
3 | COc1cc2c(cc1OC)C(=O)/C(=C/c1ccc(NC(=O)CN3CCN(CCCO)CC3)cc1)C2 [D21] | 39500 ± 1820 nM | 99.7 ± 2.82% | 40.6 ± 0.978% | 29.2 ± 0.8 nM | 95.7 ± 1.2% | 91.7 ± 1.47% | 87.3 ± 1.3% | 81.8 ± 1.1% | 70.6 ± 1% | 38.3 ± 0.678% | 19.3 ± 0.593% | 93.5 ± 1.38% | 46.2 ± 0.587% | 91.2 ± 1.21% | 26.9 ± 0.541% | > 50% | –
4 | COc1ccc2c(c1)C/C(=C\c1ccc(NC(=O)CN3CCN(CCN(C)C)CC3)cc1)C2=O [D22] | 32500 ± 523 nM | 99.5 ± 1.23% | 39.5 ± 0.97% | 52.7 ± 1.6 nM | 91.9 ± 1.47% | 86.6 ± 1.57% | 79 ± 1.17% | 70.4 ± 1.07% | 63.4 ± 0.988% | 43 ± 0.633% | 18.8 ± 0.521% | 85.3 ± 0.957% | 48.6 ± 0.605% | 76.9 ± 0.232% | 37.5 ± 0.411% | > 50% | –
5 | COc1ccc2c(c1)C(=O)/C(=C/c1ccc(NC(=O)CN3CCN(CCN(C)C)CC3)cc1)C2 [D23] | 2150 ± 127 nM | 99 ± 1.68% | 41.5 ± 0.741% | 51 ± 1.4 nM | 92.5 ± 1.57% | 87.6 ± 1.68% | 82.4 ± 1.21% | 70.1 ± 1.06% | 68.9 ± 0.945% | 35.5 ± 0.518% | 20.6 ± 0.418% | 81.3 ± 1.05% | 43.2 ± 0.884% | 78.2 ± 0.969% | 22.9 ± 0.497% | > 50% | –
6 | COc1cc2c(cc1OC)C(=O)/C(=C/c1ccc(NC(=O)CN3CCN(CCCN(C)C)CC3)cc1)C2 [D27] | 10500 ± 467 nM | 94.83 ± 0.731% | 35.9 ± 0.444% | 130 ± 4.2 nM | 91.2 ± 1.3% | 87.3 ± 1.12% | 82.1 ± 1.03% | 73.3 ± 0.994% | 41.2 ± 0.562% | 31.6 ± 0.389% | 22.5 ± 0.419% | 94.6 ± 1.02% | 43.1 ± 0.452% | 95.08 ± 0.687% | 44.4 ± 2.29% | – | IC50 [1]: 310 ± 13 nM
7 | C#CCN(C)CC(=O)Nc1ccc(/C=C2\Cc3cc(OC)ccc3C2=O)cc1 [D31] | 26000 ± 1280 nM | 98.8 ± 2.69% | 41.6 ± 0.988% | – | 41.3 ± 0.966% | 27.1 ± 0.803% | – | – | – | – | – | 93.6 ± 1.48% | 88.7 ± 1.36% | 92.7 ± 1.31% | 23.9 ± 0.572% | – | IC50 (MAO-B): 61.9 ± 2.8 nM; inhibition at 10 µM (MAO-B; 10^–5 M): 81.5 ± 1.24%; inhibition at 1 µM (MAO-B; 10^–6 M): 75.9 ± 1.06%; inhibition at 0.1 µM (MAO-B; 10^–7 M): 61.9 ± 1.01%; inhibition at 0.01 µM (MAO-B; 10^–8 M): 35.5 ± 0.485%; inhibition at 0.001 µM (MAO-B; 10^–9 M): 18.8 ± 0.511%
